Results as given in ChEMBL document CHEMBL5653615 (J Biol Chem, 2013).

What was measured:
[1] = biological target: Receptor-interacting serine/threonine-protein kinase 2 (Homo sapiens) (UniProt O43353); assay: Inhibition of human RIPK2 at 500 nM by HotSpot assay relative to control
[2] = biological target: Protein kinase C alpha type (Homo sapiens) (UniProt P17252); assay: Inhibition of human PKCa at 500 nM by HotSpot assay relative to control
[3] = biological target: T1, Discoidin domain-containing receptor 2 (Homo sapiens) (UniProt Q16832); assay: Inhibition of human DDR2 at 500 nM by HotSpot assay relative to control
T1 sequence (whole entry): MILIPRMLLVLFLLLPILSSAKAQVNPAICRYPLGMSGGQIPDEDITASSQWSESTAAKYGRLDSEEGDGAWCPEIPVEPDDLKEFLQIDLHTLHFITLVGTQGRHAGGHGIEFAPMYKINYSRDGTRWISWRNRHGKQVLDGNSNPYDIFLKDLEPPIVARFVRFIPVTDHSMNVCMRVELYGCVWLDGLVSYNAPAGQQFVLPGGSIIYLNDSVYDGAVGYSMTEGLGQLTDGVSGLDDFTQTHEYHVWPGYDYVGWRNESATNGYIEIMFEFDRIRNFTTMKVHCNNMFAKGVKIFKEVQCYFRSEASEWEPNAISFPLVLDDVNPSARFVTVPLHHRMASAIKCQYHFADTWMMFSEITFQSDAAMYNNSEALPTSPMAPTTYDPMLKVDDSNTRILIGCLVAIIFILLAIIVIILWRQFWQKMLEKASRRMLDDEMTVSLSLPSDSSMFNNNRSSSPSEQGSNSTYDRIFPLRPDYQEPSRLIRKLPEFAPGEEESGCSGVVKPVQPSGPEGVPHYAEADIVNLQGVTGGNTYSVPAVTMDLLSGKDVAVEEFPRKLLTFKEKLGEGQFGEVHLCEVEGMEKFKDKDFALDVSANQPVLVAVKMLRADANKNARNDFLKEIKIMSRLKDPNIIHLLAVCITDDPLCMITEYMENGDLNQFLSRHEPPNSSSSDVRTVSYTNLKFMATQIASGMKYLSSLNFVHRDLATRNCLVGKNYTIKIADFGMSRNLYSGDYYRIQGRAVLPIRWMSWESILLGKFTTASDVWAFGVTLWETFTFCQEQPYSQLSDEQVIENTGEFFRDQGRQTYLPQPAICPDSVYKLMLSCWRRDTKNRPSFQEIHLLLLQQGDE

[4] = biological target: Mitogen-activated protein kinase 1 (Homo sapiens) (UniProt P28482); conditions: dose 500.0 nM
Description: Inhibition of human ERK2 at 500 nM by HotSpot assay relative to control

[5] = biological target: T2, Lymphokine-activated killer T-cell-originated protein kinase (Homo sapiens) (UniProt Q96KB5); assay: Inhibition of human TOPK at 500 nM by HotSpot assay relative to control
T2 sequence (whole entry): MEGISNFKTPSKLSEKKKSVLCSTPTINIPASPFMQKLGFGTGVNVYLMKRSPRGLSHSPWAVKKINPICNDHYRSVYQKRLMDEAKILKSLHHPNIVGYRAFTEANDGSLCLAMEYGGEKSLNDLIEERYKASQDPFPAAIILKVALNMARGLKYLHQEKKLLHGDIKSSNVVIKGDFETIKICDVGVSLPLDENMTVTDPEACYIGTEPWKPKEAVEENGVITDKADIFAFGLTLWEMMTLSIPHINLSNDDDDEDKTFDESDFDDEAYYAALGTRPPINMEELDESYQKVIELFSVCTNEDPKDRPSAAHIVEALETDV

[6] = biological target: Tyrosine-protein kinase Lyn (Homo sapiens) (UniProt P07948); assay: Inhibition of human LYN at 500 nM by HotSpot assay relative to control
Chain of Tyrosine-protein kinase Lyn (Homo sapiens) (P07948 2-512 limits assumed): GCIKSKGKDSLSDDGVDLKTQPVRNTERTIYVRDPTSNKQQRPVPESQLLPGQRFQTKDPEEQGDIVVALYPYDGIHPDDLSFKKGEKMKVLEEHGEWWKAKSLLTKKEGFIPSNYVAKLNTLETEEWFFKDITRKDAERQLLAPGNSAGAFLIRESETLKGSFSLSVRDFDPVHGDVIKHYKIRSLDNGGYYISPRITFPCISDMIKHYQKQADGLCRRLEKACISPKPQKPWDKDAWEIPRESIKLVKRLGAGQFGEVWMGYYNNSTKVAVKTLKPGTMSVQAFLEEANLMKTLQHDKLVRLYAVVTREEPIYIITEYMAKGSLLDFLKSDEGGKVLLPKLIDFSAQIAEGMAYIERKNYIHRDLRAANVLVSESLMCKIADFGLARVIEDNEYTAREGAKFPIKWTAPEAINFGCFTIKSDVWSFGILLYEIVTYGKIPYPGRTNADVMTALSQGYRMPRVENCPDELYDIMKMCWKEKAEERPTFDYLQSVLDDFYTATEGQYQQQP

[7] = biological target: Casein kinase I isoform gamma-2 (Homo sapiens) (UniProt P78368); assay: Inhibition of human CK1g2 at 500 nM by HotSpot assay relative to control
Chain of Casein kinase I isoform gamma-2 (Homo sapiens) (P78368 whole entry, looked up, canonical isoform): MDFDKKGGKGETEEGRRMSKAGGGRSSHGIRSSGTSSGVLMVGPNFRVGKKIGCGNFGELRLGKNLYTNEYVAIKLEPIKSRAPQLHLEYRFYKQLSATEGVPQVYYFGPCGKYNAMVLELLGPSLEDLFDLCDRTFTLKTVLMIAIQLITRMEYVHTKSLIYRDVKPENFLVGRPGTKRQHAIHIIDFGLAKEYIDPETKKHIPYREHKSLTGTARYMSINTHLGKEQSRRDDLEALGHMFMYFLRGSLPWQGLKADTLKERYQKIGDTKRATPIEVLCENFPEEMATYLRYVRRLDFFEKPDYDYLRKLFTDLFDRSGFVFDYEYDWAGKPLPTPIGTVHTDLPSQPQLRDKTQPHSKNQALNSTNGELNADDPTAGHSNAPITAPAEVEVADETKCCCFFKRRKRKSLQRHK

[8] = biological target: Serine/threonine-protein kinase PAK 3 (Homo sapiens) (UniProt O75914); assay: Inhibition of human PAK3 at 500 nM by HotSpot assay relative to control
Chain of Serine/threonine-protein kinase PAK 3 (Homo sapiens) (O75914 whole entry, looked up): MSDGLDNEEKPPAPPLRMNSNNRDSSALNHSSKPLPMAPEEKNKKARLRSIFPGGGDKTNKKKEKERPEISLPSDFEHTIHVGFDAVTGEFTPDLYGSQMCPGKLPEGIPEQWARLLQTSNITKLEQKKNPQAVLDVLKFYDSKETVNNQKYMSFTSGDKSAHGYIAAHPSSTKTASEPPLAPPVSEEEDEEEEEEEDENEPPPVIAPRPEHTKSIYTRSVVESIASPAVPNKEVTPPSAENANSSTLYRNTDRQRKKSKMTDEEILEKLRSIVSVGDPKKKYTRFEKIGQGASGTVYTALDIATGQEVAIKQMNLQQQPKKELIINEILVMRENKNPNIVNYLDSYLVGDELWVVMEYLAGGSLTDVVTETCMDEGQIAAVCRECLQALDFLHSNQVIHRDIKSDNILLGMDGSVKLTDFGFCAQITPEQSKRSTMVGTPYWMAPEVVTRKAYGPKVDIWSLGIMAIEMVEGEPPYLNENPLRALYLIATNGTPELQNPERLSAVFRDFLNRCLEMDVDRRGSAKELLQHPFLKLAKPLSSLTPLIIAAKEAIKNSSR

[9] = biological target: Tyrosine-protein kinase Blk (Homo sapiens) (UniProt P51451); assay: Inhibition of human BLK at 500 nM by HotSpot assay relative to control
Chain of Tyrosine-protein kinase Blk (Homo sapiens) (P51451 2-505 limits assumed): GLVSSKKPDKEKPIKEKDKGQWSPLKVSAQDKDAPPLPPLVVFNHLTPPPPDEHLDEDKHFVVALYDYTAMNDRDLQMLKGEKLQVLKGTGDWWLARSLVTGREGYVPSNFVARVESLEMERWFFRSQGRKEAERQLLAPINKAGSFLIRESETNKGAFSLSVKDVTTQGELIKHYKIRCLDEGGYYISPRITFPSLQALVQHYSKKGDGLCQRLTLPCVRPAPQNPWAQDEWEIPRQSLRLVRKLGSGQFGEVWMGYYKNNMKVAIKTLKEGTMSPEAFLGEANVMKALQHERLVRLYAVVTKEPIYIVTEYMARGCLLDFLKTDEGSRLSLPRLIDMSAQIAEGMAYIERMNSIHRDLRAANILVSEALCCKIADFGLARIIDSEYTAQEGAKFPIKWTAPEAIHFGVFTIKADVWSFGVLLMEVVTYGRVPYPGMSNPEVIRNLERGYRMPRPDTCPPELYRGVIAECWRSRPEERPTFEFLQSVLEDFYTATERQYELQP

[10] = biological target: T3, Serine/threonine-protein kinase Sgk2 (Homo sapiens) (UniProt Q9HBY8); assay: Inhibition of human SGK2 at 500 nM by HotSpot assay relative to control
T3 sequence (whole entry): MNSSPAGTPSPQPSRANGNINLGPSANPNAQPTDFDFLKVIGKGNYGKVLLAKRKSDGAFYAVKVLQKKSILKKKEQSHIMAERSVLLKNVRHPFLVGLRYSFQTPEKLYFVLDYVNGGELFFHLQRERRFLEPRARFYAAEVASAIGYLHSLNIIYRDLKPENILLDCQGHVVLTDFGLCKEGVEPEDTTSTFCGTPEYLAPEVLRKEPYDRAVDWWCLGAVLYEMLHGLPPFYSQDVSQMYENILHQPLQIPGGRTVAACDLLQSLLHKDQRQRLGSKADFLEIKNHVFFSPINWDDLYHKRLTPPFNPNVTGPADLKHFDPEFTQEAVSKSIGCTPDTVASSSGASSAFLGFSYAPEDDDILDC

[11] = biological target: Mitogen-activated protein kinase 3 (Homo sapiens) (UniProt P27361); assay: Inhibition of human ERK1 at 500 nM by HotSpot assay relative to control
[12] = biological target: Receptor-type tyrosine-protein kinase FLT3 (Homo sapiens) (UniProt P36888); assay: Inhibition of human FLT3 at 500 nM by HotSpot assay relative to control
Chain of Receptor-type tyrosine-protein kinase FLT3 (Homo sapiens) (P36888 whole entry): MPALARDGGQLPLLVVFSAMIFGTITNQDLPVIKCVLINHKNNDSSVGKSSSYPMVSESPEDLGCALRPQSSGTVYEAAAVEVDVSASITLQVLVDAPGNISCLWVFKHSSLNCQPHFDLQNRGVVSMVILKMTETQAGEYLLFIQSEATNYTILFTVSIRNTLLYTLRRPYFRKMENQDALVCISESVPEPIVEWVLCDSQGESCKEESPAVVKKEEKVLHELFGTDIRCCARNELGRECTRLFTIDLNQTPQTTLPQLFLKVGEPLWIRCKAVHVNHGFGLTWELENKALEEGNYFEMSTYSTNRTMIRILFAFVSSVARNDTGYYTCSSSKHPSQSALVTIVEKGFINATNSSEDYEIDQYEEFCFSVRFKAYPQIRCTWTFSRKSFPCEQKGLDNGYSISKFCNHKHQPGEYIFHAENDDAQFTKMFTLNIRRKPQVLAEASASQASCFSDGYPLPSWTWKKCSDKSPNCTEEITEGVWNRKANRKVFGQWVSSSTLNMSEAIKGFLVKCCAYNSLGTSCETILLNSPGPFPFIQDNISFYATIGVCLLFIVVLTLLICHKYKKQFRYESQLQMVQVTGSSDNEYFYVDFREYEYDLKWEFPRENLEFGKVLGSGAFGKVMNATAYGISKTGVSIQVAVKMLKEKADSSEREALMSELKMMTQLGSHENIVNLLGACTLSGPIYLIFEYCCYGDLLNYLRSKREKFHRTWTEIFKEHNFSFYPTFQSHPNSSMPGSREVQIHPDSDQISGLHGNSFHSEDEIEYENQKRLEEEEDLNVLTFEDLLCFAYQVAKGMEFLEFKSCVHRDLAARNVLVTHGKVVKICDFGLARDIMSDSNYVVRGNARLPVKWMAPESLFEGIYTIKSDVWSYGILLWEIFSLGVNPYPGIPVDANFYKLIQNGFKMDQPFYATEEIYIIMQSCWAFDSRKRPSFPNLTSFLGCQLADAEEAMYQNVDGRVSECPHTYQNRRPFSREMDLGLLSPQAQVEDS

[13] = biological target: Insulin receptor (Homo sapiens) (UniProt P06213); assay: Inhibition of human IR at 500 nM by HotSpot assay relative to control
Chain of Insulin receptor (Homo sapiens) (P06213 28-758 limits assumed): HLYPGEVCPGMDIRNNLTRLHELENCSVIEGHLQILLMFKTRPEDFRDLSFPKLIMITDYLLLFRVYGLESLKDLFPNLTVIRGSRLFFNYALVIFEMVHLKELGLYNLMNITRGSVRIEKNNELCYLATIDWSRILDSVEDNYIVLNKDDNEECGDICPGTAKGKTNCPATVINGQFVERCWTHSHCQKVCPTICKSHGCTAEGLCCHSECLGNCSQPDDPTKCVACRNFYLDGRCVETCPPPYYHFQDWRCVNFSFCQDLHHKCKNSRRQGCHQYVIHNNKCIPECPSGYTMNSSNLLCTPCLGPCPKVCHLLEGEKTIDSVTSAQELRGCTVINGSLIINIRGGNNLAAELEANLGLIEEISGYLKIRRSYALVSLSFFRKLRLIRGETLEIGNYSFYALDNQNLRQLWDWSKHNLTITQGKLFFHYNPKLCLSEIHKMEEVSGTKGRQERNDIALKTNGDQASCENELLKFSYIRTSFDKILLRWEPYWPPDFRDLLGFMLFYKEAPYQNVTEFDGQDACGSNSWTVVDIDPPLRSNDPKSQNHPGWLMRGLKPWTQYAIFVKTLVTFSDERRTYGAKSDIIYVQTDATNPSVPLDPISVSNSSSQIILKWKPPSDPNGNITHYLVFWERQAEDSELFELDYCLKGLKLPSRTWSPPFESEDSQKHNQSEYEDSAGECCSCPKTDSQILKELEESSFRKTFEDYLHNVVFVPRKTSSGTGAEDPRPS
Chain of Insulin receptor (Homo sapiens) (P06213 763-1382 limits assumed): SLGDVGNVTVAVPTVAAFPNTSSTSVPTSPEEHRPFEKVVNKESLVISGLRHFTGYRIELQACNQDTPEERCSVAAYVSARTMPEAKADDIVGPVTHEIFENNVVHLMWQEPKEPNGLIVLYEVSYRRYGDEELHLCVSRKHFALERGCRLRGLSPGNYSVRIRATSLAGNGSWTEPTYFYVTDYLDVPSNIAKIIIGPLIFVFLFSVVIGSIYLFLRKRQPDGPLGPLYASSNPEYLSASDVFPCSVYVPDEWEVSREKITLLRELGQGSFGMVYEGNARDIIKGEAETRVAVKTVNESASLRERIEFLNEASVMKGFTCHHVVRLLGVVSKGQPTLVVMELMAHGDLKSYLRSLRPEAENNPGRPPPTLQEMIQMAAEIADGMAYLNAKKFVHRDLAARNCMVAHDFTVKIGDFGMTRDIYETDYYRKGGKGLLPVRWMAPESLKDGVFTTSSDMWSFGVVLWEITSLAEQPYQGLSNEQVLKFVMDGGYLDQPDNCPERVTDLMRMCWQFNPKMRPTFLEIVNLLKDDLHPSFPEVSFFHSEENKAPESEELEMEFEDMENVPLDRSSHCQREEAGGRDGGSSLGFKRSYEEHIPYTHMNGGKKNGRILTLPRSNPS

[14] = biological target: Dual specificity protein kinase CLK1 (Homo sapiens) (UniProt P49759); assay: Inhibition of human CLK1 at 500 nM by HotSpot assay relative to control
[15] = biological target: Dual specificity tyrosine-phosphorylation-regulated kinase 1A (Homo sapiens) (UniProt Q13627); assay: Inhibition of human DYRK1 at 500 nM by HotSpot assay relative to control
[16] = biological target: Ephrin type-B receptor 4 (Homo sapiens) (UniProt P54760); assay: Inhibition of human EPHB4 at 500 nM by HotSpot assay relative to control
[17] = biological target: Serine/threonine-protein kinase 33 (Homo sapiens) (UniProt Q9BYT3); assay: Inhibition of human STK33 at 500 nM by HotSpot assay relative to control

Chain of Receptor-interacting serine/threonine-protein kinase 2 (Homo sapiens) (O43353 whole entry): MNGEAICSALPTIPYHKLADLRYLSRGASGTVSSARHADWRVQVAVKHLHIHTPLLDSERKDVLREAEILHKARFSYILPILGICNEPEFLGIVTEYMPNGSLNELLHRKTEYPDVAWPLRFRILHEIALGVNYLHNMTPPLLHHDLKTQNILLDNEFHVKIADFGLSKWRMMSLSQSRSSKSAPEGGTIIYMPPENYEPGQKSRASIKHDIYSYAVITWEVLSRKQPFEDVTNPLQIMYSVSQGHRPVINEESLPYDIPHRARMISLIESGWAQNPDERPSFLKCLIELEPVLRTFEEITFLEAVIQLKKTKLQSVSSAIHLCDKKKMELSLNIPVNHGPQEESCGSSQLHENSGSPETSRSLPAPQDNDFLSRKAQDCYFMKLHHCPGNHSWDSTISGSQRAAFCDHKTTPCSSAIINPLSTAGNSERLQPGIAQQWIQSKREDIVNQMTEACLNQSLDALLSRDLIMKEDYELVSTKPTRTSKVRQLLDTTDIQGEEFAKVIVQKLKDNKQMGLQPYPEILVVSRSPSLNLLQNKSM

Structure (SMILES) | inhibition [1] [%] | inhibition [2] [%] | inhibition [3] [%] | inhibition [4] [%] | inhibition [5] [%] | inhibition [6] [%] | inhibition [7] [%] | inhibition [8] [%] | inhibition [9] [%] | inhibition [10] [%] | inhibition [11] [%] | inhibition [12] [%] | inhibition [13] [%] | inhibition [14] [%] | inhibition [15] [%] | inhibition [16] [%] | inhibition [17] [%]
Oc1n[nH]c2nnc(-c3c(-c4ccccc4)nn4ccccc34)cc12 | 11.9 | 14.1 | -2.78 | -0.62 | -8.9 | 2.29 | 3.49 | 0.99 | 2.09 | 3.78 | -2.01 | 4.49 | 72.6 | -5.95 | -2.58 | 2.91 | -0.22
Nc1n[nH]c2nnc(-c3c(-c4ccccc4)nn4ccccc34)cc12 | 13 | 12.8 | -0.55 | 12.8 | 4.99 | 5.07 | -9.31 | -0.04 | 1.92 | 1.2 | 34.2 | 36.5 | 21.7 | -8.27 | -1.99 | 1.54 | -0.39
